Data as given in patent US6861428B2, “Water-soluble phenylpyridazine compounds and compositions containing the same” (Kowa Co., Ltd., priority 2001, dated 2005).
Read-outs that look alike come from different tables or passages of the source.

How the values were obtained:
[1] = system: interleukin-1β production; assay: Inhibitory activity against interleukin-1β production (LPS-stimulated HL-60 cells, ELISA); format: cell-based; details: Homo sapiens, 72 h, lipopolysaccharide 10 μg/mL, 3 days
Method: Inhibitory Activity Against Interleukin-1β Production
HL-60 cells were cultured for 4 days until confluence on RPMI 1640 medium with 10% fetal bovine serum (FBS) added thereto. The medium was centrifuged. The supernatant was discarded, and the cells were then suspended at 1×10^6 cells/mL on RPMI 1640 medium with 3% FBS, and lipopolysaccharide was added to give a final concentration of 10 μg/mL. The culture was inoculated at 1 mL/well to a 24-well plate. A sample compound was added at 1 μL/well, followed by culturing for 3 days. Three days later, the amount of interleukin-1β in each culture was determined by ELISA. Each IC50 value was determined by a comparison in yield with a control to which no test sample was added.

[2] = Table 1, read-out: IL-1β production inhibiting activity IC50
[3] = Table 2, read-out: IL-1β production inhibiting activity IC50

melting point	Compound	other results
236.1 to 237.1 °C	Cc1cc(-c2cc(CN3CCN(C)CC3)c(=O)n(CC=Cc3ccccc3)n2)ccc1F.Cl.Cl	
209 to 211.4 °C	CN1CCN(Cc2cc(-c3ccc(S(C)(=O)=O)cc3)nn(CC3CC3)c2=O)CC1.Cl.Cl	
183.6 to 184.5 °C	Cc1cc(-c2cc(CN(C)C)c(=O)n(CC=Cc3ccccc3)n2)ccc1F.Cl	
248.5 to 253.7 °C (dec.)	CSc1ccc(-c2cc(CN3CCNCC3)c(=O)n(CC(C)C)n2)cc1.Cl.Cl	
213.6 to 214.3 °C	COc1ccc(-c2cc(CN(C)C)c(=O)n(CC(C)C)n2)cc1Cl.Cl	
191 to 202 °C (dec.)	Cc1cc(-c2cc(CN3CCN(C)CC3)c(=O)n(Cc3ccccc3Cl)n2)ccc1F.Cl.Cl	
80 °C (dec.)	CN1CCN(Cc2cc(-c3ccc([S+](C)[O-])cc3)nn(CC3CC3)c2=O)CC1.Cl.Cl (stereo not drawn)	
97.6 to 102.2 °C	Cc1cc(-c2cc(CN)c(=O)n(Cc3ccccc3Cl)n2)ccc1F [Example 237, 4-aminomethyl-2-(2-chlorobenzyl)-6-(4-fluoro-3-methylphenyl)-2H-pyridazin-3-one]	
145 to 149 °C	COc1ccc(-c2cc(CN)c(=O)n(Cc3ccc(F)cc3)n2)cc1F [Example 194, 4-aminomethyl-2-(4-fluorobenzyl)-6-(3-fluoro-4-methoxyphenyl)-2H-pyridazin-3-one]	
162.7 to 180.7 °C (dec.)	Cc1cc(-c2cc(CN3CCNCC3)c(=O)n(Cc3ccccc3)n2)ccc1F.Cl.Cl	
149.7 to 150.9 °C	Cc1cc(-c2cc(CN3CCN(C)CC3)c(=O)n(Cc3ccccc3Cl)n2)ccc1F [Example 224, 2-(2-chlorobenzyl)-6-(4-fluoro-3-methylphenyl)-4-(4-methyl-1-piperazinyl)methyl-2H-pyridazin-3-one]	
	COc1ccc(-c2cc(CCCN3CCNCC3)c(=O)n(CC3CC3)n2)cc1F [Example 213, 2-cyclopropylmethyl-6-(3-fluoro-4-methoxyphenyl)-4-[3-(1-piperazinyl)propyl]-2H-pyridazin-3-one]	IC50 [1, 2]: 0.24 µM
108 to 109 °C	COc1ccc(-c2cc(CCCN3CCN(C)CC3)c(=O)n(Cc3ccc(F)cc3)n2)cc1F [Example 239, 2-(4-fluorobenzyl)-6-(3-fluoro-4-methoxyphenyl)-4-[3-(4-methyl-1-piperazinyl)propyl]-2H-pyridazin-3-one]	
210.8 to 212.5 °C	CC(C)Cn1nc(-c2ccc(C(F)(F)F)cc2)cc(CN2CCNCC2)c1=O.Cl.Cl	
74.9 to 77.9 °C	Cc1ccc(-c2cc(CN)c(=O)n(CC(C)C)n2)cc1 [Example 50, 4-aminomethyl-2-isobutyl-6-(4-methylphenyl)-2H-pyridazin-3-one]	
239.5 to 240.7 °C	Cc1c(-c2ccc(S(C)(=O)=O)cc2)nn(CC2CC2)c(=O)c1N(C)C.Cl	
236.9 to 237 °C	COc1ccc(-c2cc(CN3CCN(C)CC3)c(=O)n(CC(C)C)n2)cc1F.Cl.Cl	
186.7 to 197 °C (dec.)	Cc1cc(-c2cc(CN3CCNCC3)c(=O)n(CC=Cc3ccc(Cl)cc3)n2)ccc1F.Cl.Cl	
	COc1ccc(-c2cc(CCCN)c(=O)n(CC3CC3)n2)cc1F [Example 216, 4-(3-aminopropyl)-2-cyclopropylmethyl-6-(3-fluoro-4-methoxyphenyl)-2H-pyridazin-3-one]	IC50 [1, 2]: 1.14 µM

melting point	Compound	other results
221.7 to 222.3 °C	CC(C)Cn1nc(-c2ccccc2)cc(CN(C)C)c1=O.Cl	
171.1 to 187.1 °C (dec.)	Cc1cc(-c2cc(CN3CCNCC3)c(=O)n(CC=Cc3ccccc3)n2)ccc1F.Cl.Cl	
212.4 to 212.8 °C	COc1ccc(-c2cc(CN(C)C)c(=O)n(CC(C)C)n2)cc1F.Cl	
82 to 84 °C	COc1ccc(-c2cc(CN)c(=O)n(CCCc3ccc(F)cc3)n2)cc1F [Example 200, 4-aminomethyl-6-(3-fluoro-4-methoxyphenyl)-2-[3-(4-fluorophenyl)propyl]-2H-pyridazin-3-one]	
224.5 to 229.1 °C (dec.)	Cc1c(-c2ccc([S+](C)[O-])cc2)nn(CC(C)C)c(=O)c1N1CCN(C)CC1.Cl.Cl (stereo not drawn)	
248.5 to 252 °C (dec.)	Cc1ccc(-c2cc(CN3CCN(C)CC3)c(=O)n(CC(C)C)n2)cc1F.Cl.Cl	
225.3 to 226 °C	Cc1cc(-c2cc(CN(C)C)c(=O)n(Cc3ccccc3)n2)ccc1F.Cl	
242.5 to 243.4 °C	CC(C)Cn1nc(-c2ccc(F)c(F)c2)cc(CN2CCN(C)CC2)c1=O.Cl.Cl	
95.3 to 96.7 °C	COc1ccc(-c2cc(CN(C)C)c(=O)n(Cc3ccc(Cl)cc3)n2)cc1F [Example 203, 2-(4-chlorobenzyl)-4-dimethylaminomethyl-6-(3-fluoro-4-methoxyphenyl)-2H-pyridazin-3-one]	
201.9 to 206.4 °C	Cc1cc(-c2cc(CN)c(=O)n(Cc3ccccc3Cl)n2)ccc1F.Cl	
235.8 to 236.7 °C	COc1ccc(-c2cc(CN3CCN(C)CC3)c(=O)n(CC(C)C)n2)cc1Cl.Cl.Cl	
	COc1ccc(-c2cc(CN3CCN(C)CC3)c(=O)n(CCCc3ccccc3Cl)n2)cc1F [Example 241, 2-[3-(2-chlorophenyl)propyl]-6-(3-fluoro-4-methoxyphenyl)-4-(4-methyl-1-piperazinyl)methyl-2H-pyridazin-3-one]	IC50 [1, 3]: 6.4 µM
	COc1ccc(-c2cc(CN3CCN(CCO)CC3)c(=O)n(CC=Cc3ccc(Cl)cc3)n2)cc1F [Example 210, 2-(4-chlorocinnamyl)-6-(3-fluoro-4-methoxyphenyl)-4-[4-(2-hydroxyethyl)-1-piperazinyl]methyl-2H-pyridazin-3-one]	IC50 [1, 3]: 3.1 µM
249.9 to 252.8 °C	Cc1c(-c2ccc(C(F)(F)F)cc2)nn(CC(C)C)c(=O)c1N1CCN(C)CC1.Cl.Cl	
111.5 to 118 °C	COc1ccc(-c2cc(CN3CCNCC3)c(=O)n(CC3CC3)n2)cc1F [Example 20, 2-cyclopropylmethyl-6-(3-fluoro-4-methoxyphenyl)-4-(1-piperazinyl)methyl-2H-pyridazin-3-one]	
	Cc1cc(-c2cc(CN3CCN(C)CC3)c(=O)n(CCCc3ccc(Cl)cc3)n2)ccc1F [Example 218, 2-[3-(4-chlorophenyl)propyl]-6-(4-fluoro-3-methylphenyl)-4-(4-methyl-1-piperazinyl)methyl-2H-pyridazin-3-one]	IC50 [1, 3]: 6.8 µM
203.6 to 204.5 °C	COc1ccc(-c2cc(CN3CCNCC3)c(=O)n(CC(C)C)n2)cc1Cl.Cl.Cl	
243.8 to 244.3 °C	Cc1c(-c2ccccc2)nn(CC(C)C)c(=O)c1N1CCN(C)CC1.Cl.Cl	
134.1 to 135.2 °C	Cc1ccc(-c2nn(CC(C)C)c(=O)c(NC(CO)CO)c2C)cc1 [Example 52, 4-(1,3-dihydroxypropan-2-yl)amino-methyl-2-isobutyl-6-(4-methylphenyl)-2H-pyridazin-3-one]	

melting point	Compound	other results
204.2 to 206 °C	CC(C)Cn1nc(-c2ccc([S+](C)[O-])cc2)cc(CN(C)C)c1=O.Cl (stereo not drawn)	
230.2 to 232.3 °C	CSc1ccc(-c2nn(CC3CC3)c(=O)c(N(C)C)c2C)cc1.Cl [Example 153, 2-cyclopropylmethyl-4-dimethylamino-methyl-6-[4-(methylthio)phenyl]-2H-pyridazin-3-one hydrochloride]	
221.4 to 223.3 °C	CC(C)Cn1nc(-c2ccc(S(C)(=O)=O)cc2)cc(CN(C)C)c1=O.Cl	
240 to 242.5 °C (dec.)	Cc1cc(-c2cc(CN3CCN(C)CC3)c(=O)n(Cc3ccccc3)n2)ccc1F.Cl.Cl	
243.9 to 244.1 °C	Cc1c(-c2ccc(-c3ccccc3)cc2)nn(CC(C)C)c(=O)c1N(C)C.Cl	
242.2 to 242.3 °C	CC(C)Cn1nc(-c2ccc(C(F)(F)F)cc2)cc(CN(C)C)c1=O.Cl	
97 to 100 °C	COc1ccc(-c2cc(CN(C)C)c(=O)n(CCCc3ccc(F)cc3)n2)cc1F [Example 197, 4-dimethylaminomethyl-6-(3-fluoro-4-methoxyphenyl)-2-[3-(4-fluorophenyl)propyl]-2H-pyridazin-3-one]	
262.2 to 263.6 °C	CC(C)Cn1nc(-c2ccc(-c3ccccc3)cc2)cc(CN2CCN(C)CC2)c1=O.Cl.Cl	
226.8 to 228 °C	CC(C)Cn1nc(-c2ccc(-c3ccccc3)cc2)cc(CN2CCNCC2)c1=O.Cl.Cl	
182.5 to 186 °C	CC(C)Cn1nc(-c2ccc(F)c(F)c2)cc(CN2CCNCC2)c1=O.Cl.Cl	
222.4 to 224.2 °C	CC(C)Cn1nc(-c2ccc(S(C)(=O)=O)cc2)cc(CN2CCNCC2)c1=O.Cl.Cl	
186.2 to 195 °C (dec.)	Cc1ccc(-c2cc(CN3CCNCC3)c(=O)n(CC(C)C)n2)cc1F.Cl.Cl	
127 to 129 °C	COc1ccc(-c2cc(CN(C)C)c(=O)n(Cc3ccc(F)cc3)n2)cc1F [Example 190, 4-dimethylaminomethyl-2-(4-fluorobenzyl)-6-(3-fluoro-4-methoxyphenyl)-2H-pyridazin-3-one]	
154.3 to 159.5 °C	Cc1c(-c2ccccc2)nn(CC(C)C)c(=O)c1N1CCNCC1.Cl.Cl	
169.1 to 170.7 °C	CNCc1cc(-c2ccc(OC)c(F)c2)nn(CC2CC2)c1=O	
128.5 to 131.4 °C	COc1ccc(-c2cc(CN)c(=O)n(Cc3ccc(Cl)cc3)n2)cc1F [Example 205, 4-aminomethyl-2-(4-chlorobenzyl)-6-(3-fluoro-4-methoxyphenyl)-2H-pyridazin-3-one]	
246.4 to 249.7 °C (dec.)	Cc1cc(-c2cc(CN3CCN(C)CC3)c(=O)n(Cc3ccc(Cl)cc3)n2)ccc1F.Cl.Cl	
201.3 to 201.9 °C	Cc1cc(-c2nn(CC=Cc3ccc(Cl)cc3)c(=O)c(N(C)C)c2C)ccc1F.Cl	
163 to 177 °C (dec.)	COc1ccc(-c2cc(CN3CCNCC3)c(=O)n(CC(C)C)n2)cc1F.Cl.Cl	
